According to patent publication US20220187282A1, “CARDIOMYOCYTE PROLIFERATION” (The Council of the Queensland Institute of Medical Research, priority 2019, published 2022):
Like-named read-outs stand apart in the source and are kept apart here.

How the values were obtained:
Type in all cases: biochemical
kinases [1] = target: kinases (Homo sapiens, UniProt O00329); conditions: PIK3CD/PIK3R1 FRET-Adapta SP; Test Conc(μM):ATP Conc(μM) 1:75
kinases [2] = target: kinases (Homo sapiens, UniProt O94768); conditions: STK17B (DRAK2) FRET-Lantha SP; Test Conc(μM) 1
kinases [3] = target: kinases (Homo sapiens, UniProt P50750)
kinases [4] = target: kinases (Homo sapiens, UniProt Q8NI60); conditions: ADCK3 FRET-Lantha SP; Test Conc(μM) 1
kinases [5] = target: kinases (Homo sapiens, UniProt P42685); conditions: FRK (PTK5) FRET-Z-Lyte SP; Test Conc(μM):ATP Conc(μM) 1:50
kinases [6] = target: kinases (Homo sapiens, UniProt Q96RG2); conditions: PASK FRET-Z-Lyte SP; Test Conc(μM):ATP Conc(μM) 1:50
kinases [7] = target: kinases (Homo sapiens, UniProt Q13164); conditions: MAPK7 (ERK5) FRET-Z-Lyte SP; Test Conc(μM):ATP Conc(μM) 1:10
kinases [8] = target: kinases (Homo sapiens, UniProt P37173); conditions: TGFBR2 FRET-Lantha SP; Test Conc(μM) 1
kinases [9] = target: kinases (Homo sapiens, UniProt O75460); conditions: ERN1 FRET-Lantha SP; Test Conc(μM) 1
kinases [10] = target: kinases (Homo sapiens, UniProt O14936); conditions: CASK FRET-Lantha SP; Test Conc(μM) 1
kinases [11] = target: kinases (Homo sapiens, UniProt Q32MK0); conditions: MYLK3 Hu Bind FRET-Lantha SP; Test Conc(μM) 1
kinases [12] = target: kinases (Homo sapiens, UniProt Q9UQM7); conditions: CAMK2A FRET-Z-Lyte SP; Test Conc(μM):ATP Conc(μM) 1:10
kinases [13] = target: kinases (Homo sapiens, UniProt Q9P1W9); conditions: PIM2 FRET-Z-Lyte SP; Test Conc(μM):ATP Conc(μM) 1:5
kinases [14] = target: kinases (Homo sapiens, UniProt P22694); conditions: PRKACB FRET-Lantha SP; Test Conc(μM) 1
kinases [15] = target: kinases (Homo sapiens, UniProt P49760); conditions: CLK2 FRET-Z-Lyte SP; Test Conc(μM):ATP Conc(μM) 1:25
kinases [16] = target: kinases (Homo sapiens, UniProt Q13163); conditions: MAP2K5 (MEK5) FRET-Lantha SP; Test Conc(μM) 1
kinases [17] = target: kinases (Homo sapiens, UniProt O00443); conditions: PIK3C2A FRET-Adapta SP; Test Conc(μM):ATP Conc(μM) 1:25
kinases [18] = target: kinases (Homo sapiens, UniProt P08922); conditions: ROS1 FRET-Z-Lyte SP; Test Conc(μM):ATP Conc(μM) 1:50
kinases [19] = target: kinases (Homo sapiens, UniProt Q9H1R3); conditions: MYLK2 FRET-Z-lyte SP
kinases [20] = target: kinases (Homo sapiens, UniProt Q9HC98); conditions: NEK6 FRET-Z-Lyte SP; Test Conc(μM):ATP Conc(μM) 1:100
kinases [21] = target: kinases (Homo sapiens, UniProt P49137); conditions: MAPKAPK2 FRET-Z-Lyte SP; Test Conc(μM):ATP Conc(μM) 1:5
kinases [22] = target: kinases (Homo sapiens, UniProt Q9UL54); conditions: TAOK2 (TAO1) FRET-Z-Lyte SP
kinases [23] = target: kinases (Homo sapiens, UniProt Q8IWQ3); conditions: BRSK2 FRET-Lantha SP; Test Conc(μM) 1
kinases [24] = target: kinases (Homo sapiens, UniProt Q14012); conditions: CAMK1 (CaMK1) FRET-Adapta SP; Test Conc(μM):ATP Conc(μM) 1:10
kinases [25] = target: kinases (Homo sapiens, UniProt O15146); conditions: MUSK *Mn* FRET-Z-Lyte SP; Test Conc(μM):ATP Conc(μM) 1:50
kinases [26] = target: kinases (Homo sapiens, UniProt P42680); conditions: TEC FRET-Lantha SP; Test Conc(μM) 1
kinases [27] = target: kinases (Homo sapiens, UniProt Q9P289); conditions: MST4 FRET-Z-Lyte SP; Test Conc(μM):ATP Conc(μM) 1:25
kinases [28] = target: kinases (Homo sapiens, UniProt Q8N752); conditions: CSNK1A1L FRET-Z-Lyte SP; Test Conc(μM):ATP Conc(μM) 1:5
kinases [29] = target: kinases (Homo sapiens, UniProt Q13976); conditions: PRKG1 FRET-Z-Lyte SP; Test Conc(μM):ATP Conc(μM) 1:25
[30] = CDK9 (Inactive) FRET-Lantha SP, Test Conc(μM) 1
[31] = CDK9/cyclin K FRET-Lantha SP, Test Conc(μM) 1
[32] = CDK9/cyclin T1 FRET-Adapta SP, Test Conc(μM):ATP Conc(μM) 1:25
[33] = Test Conc(μM):ATP Conc(μM) 1:300
[34] = Test Conc(μM):ATP Conc(μM) 0.25

kinases (Homo sapiens, UniProt P50750), sequence (P50750 whole entry): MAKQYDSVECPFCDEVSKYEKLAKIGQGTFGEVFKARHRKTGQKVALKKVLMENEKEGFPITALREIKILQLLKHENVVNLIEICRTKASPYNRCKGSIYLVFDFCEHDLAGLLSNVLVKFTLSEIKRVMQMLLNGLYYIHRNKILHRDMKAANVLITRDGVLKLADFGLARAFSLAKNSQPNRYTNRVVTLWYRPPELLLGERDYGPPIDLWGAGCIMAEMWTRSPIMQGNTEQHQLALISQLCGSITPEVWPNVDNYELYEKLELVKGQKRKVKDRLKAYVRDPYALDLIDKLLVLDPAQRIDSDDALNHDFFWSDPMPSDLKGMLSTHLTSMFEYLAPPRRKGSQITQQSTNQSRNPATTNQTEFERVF
kinases (Homo sapiens, UniProt O94768), sequence (O94768 whole entry): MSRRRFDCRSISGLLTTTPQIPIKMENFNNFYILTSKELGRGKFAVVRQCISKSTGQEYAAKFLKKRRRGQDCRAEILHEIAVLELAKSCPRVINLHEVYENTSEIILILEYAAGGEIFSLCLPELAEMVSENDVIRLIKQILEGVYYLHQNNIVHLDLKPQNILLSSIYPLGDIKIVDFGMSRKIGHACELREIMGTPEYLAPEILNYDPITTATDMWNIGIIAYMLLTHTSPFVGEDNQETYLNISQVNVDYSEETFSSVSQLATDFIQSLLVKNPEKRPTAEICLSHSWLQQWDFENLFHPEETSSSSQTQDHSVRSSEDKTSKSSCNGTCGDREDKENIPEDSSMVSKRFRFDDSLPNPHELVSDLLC
kinases (Homo sapiens, UniProt O14936), sequence (O14936 whole entry): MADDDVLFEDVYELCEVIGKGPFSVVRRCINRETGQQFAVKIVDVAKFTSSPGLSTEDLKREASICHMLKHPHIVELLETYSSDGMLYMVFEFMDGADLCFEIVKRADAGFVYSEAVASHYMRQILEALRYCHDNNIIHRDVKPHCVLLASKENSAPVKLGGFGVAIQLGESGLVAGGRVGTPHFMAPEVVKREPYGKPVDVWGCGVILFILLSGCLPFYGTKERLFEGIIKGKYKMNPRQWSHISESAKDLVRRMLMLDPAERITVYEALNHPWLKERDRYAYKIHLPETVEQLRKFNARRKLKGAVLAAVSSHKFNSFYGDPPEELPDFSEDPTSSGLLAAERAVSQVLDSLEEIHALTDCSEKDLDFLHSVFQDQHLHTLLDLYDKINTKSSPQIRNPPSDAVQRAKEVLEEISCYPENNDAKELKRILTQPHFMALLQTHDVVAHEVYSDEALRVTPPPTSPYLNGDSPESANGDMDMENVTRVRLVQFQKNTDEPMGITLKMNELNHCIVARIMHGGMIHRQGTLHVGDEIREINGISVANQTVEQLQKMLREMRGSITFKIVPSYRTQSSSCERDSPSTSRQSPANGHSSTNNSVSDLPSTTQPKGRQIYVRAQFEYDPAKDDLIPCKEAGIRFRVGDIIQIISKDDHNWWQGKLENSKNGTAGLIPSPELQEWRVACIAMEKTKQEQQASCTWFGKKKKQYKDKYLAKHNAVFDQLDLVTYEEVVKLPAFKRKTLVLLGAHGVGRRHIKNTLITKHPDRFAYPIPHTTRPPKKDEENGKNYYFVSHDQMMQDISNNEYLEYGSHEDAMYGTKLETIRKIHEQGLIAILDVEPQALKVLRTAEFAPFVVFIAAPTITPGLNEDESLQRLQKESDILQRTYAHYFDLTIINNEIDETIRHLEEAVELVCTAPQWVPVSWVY
kinases (Homo sapiens, UniProt O00329), sequence (O00329 whole entry): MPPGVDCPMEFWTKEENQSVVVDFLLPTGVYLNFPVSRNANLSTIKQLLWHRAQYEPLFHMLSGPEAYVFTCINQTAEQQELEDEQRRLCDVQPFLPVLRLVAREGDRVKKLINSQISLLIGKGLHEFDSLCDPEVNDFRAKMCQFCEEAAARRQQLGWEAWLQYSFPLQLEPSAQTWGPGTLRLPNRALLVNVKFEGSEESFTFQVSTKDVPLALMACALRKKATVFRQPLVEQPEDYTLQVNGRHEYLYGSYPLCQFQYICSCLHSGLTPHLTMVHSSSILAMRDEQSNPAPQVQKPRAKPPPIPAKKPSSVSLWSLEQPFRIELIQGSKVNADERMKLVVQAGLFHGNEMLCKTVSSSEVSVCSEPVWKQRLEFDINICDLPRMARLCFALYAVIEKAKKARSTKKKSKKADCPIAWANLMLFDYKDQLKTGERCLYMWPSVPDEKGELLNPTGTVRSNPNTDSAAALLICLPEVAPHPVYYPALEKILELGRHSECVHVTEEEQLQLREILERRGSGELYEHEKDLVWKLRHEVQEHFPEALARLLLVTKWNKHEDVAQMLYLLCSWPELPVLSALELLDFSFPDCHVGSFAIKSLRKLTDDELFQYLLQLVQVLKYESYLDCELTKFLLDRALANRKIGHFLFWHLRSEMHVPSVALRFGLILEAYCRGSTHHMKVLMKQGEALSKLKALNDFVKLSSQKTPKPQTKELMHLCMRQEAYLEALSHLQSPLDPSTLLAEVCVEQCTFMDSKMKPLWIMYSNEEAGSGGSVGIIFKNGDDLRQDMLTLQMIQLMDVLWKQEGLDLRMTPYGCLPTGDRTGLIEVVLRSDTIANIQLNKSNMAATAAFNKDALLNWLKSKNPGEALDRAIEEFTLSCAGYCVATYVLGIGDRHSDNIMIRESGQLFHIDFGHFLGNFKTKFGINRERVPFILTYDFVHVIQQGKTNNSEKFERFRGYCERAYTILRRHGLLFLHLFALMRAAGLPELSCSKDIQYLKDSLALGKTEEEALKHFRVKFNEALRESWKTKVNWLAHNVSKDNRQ
kinases (Homo sapiens, UniProt Q9H1R3), sequence (Q9H1R3 whole entry): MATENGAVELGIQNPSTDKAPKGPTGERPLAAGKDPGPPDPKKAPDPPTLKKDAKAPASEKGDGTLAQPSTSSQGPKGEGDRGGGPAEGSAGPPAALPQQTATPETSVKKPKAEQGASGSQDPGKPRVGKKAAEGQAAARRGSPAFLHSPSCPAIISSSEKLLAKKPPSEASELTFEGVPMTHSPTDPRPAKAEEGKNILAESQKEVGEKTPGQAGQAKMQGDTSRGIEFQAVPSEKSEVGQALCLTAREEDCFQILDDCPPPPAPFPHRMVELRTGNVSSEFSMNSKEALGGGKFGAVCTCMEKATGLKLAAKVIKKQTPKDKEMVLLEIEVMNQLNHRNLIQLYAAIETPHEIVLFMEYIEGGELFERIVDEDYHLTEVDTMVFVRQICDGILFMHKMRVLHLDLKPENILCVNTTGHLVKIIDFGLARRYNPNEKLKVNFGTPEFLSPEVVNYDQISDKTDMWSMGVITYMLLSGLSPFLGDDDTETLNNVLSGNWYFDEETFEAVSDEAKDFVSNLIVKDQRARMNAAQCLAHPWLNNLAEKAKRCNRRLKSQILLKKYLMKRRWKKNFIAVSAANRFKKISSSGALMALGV
kinases (Homo sapiens, UniProt P42680), sequence (P42680 whole entry): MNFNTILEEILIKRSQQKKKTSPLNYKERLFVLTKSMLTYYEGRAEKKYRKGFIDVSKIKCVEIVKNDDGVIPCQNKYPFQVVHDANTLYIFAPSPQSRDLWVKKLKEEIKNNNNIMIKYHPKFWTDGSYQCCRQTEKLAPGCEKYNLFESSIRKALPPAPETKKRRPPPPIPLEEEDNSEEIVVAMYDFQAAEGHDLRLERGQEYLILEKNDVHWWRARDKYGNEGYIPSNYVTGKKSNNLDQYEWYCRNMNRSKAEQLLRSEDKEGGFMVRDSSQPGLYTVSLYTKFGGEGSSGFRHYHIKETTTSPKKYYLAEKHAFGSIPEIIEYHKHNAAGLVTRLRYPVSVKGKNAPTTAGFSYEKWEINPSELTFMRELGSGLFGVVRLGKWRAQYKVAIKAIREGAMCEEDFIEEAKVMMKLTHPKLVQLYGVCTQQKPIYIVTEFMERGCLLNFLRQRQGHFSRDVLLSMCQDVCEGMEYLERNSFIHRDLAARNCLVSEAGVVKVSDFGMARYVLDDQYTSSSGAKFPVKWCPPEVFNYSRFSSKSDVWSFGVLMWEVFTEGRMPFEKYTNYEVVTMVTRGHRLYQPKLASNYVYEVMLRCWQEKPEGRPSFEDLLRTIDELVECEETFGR
kinases (Homo sapiens, UniProt Q13976), sequence (Q13976 whole entry): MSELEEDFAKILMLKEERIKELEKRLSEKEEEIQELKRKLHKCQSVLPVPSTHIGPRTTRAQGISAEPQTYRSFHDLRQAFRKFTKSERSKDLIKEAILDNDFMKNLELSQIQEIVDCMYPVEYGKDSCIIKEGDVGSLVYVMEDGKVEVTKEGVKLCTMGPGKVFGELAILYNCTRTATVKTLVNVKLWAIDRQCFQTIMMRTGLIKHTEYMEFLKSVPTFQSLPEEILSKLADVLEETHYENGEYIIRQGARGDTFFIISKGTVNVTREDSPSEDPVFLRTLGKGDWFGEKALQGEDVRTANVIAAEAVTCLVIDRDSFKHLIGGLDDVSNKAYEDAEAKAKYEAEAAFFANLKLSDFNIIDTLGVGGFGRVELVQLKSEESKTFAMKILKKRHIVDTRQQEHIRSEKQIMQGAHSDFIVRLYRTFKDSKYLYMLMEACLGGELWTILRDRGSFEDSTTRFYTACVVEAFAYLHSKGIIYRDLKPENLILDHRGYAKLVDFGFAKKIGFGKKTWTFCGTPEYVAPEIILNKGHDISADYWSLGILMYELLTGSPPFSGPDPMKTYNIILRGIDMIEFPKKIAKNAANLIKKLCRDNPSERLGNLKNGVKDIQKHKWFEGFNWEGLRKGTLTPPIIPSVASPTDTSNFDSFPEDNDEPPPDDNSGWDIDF
kinases (Homo sapiens, UniProt Q9P289), sequence (Q9P289 whole entry): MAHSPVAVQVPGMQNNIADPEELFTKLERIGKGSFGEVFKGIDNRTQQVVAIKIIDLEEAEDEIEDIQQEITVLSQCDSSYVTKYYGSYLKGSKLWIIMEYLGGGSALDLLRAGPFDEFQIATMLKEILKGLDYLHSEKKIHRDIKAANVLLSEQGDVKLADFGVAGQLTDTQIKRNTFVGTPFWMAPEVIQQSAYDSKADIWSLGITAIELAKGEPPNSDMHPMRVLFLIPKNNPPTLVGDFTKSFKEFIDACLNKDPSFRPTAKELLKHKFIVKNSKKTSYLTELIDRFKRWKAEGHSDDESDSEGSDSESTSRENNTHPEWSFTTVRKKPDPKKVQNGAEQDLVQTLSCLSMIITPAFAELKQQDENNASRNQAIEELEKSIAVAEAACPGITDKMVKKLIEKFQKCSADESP

In the case of Cc1ccc(NC(=O)c2ccnc(N3CCOCC3)c2)cc1Nc1ccnc(N2CC(C)OC(C)C2)n1 (centres unmarked) [compound 3], the “Mean Inhib (%)” value (kinases [1]) is reported as 1.0%, the “Mean Inhib (%)” value (kinases [2]) is reported as 4.7% and the “Mean Inhib (%)” value (kinases [3]; [30]) is reported as 6.2%. For the same compound, the “Mean Inhib (%)” value (kinases [3]; [31]) was −1.9%, the “Mean Inhib (%)” value (kinases [3]; [32]) was 17.2% and the “Mean Inhib (%)” value (kinases [4]) was −1.6%. The “Mean Inhib (%)” value (kinases [5]) was 5.7%, the “Mean Inhib (%)” value (kinases [6]) was 13.7% and the “Mean Inhib (%)” value (kinases [7]) was 0.2%. The “Mean Inhib (%)” value (kinases [8]) was −3.5%, the “Mean Inhib (%)” value (kinases [9]) was −3.4% and the “Mean Inhib (%)” value (kinases [10]) was 16.8%. The “Mean Inhib (%)” value (kinases [11]) was 4.5%, the “Mean Inhib (%)” value (kinases [12]) was 1.0% and the “Mean Inhib (%)” value (kinases [13]) was −0.3%. For the same compound, the “Mean Inhib (%)” value (kinases [14]) was 2.3%, the “Mean Inhib (%)” value (kinases [15]) was 3.7% and the “Mean Inhib (%)” value (kinases [16]) was −1.6%. For the same compound, the “Mean Inhib (%)” value (kinases [17]) was 1.7%, the “Mean Inhib (%)” value (kinases [18]) was 10.0% and the “Mean Inhib (%)” value (kinases [19]; [33]) was 7.4%. The “Mean Inhib (%)” value (kinases [20]) was −4.0%, the “Mean Inhib (%)” value (kinases [21]) was −2.1% and the “Mean Inhib (%)” value (kinases [22]; [33]) was −3.6%. For the same compound, the “Mean Inhib (%)” value (kinases [23]) was 3.2%, the “Mean Inhib (%)” value (kinases [24]) was −9.9% and the “Mean Inhib (%)” value (kinases [25]) was 19.5%. For the same compound, the “Mean Inhib (%)” value (kinases [26]) was 5.7%, the “Mean Inhib (%)” value (kinases [27]) was 16.7% and the “Mean Inhib (%)” value (kinases [28]) was 2.0%. The “Mean Inhib (%)” value (kinases [29]) was 5.7%.

For Cc1cc(Oc2ccnc(Nc3ccc(S(N)(=O)=O)cc3)c2)c(-c2ccccn2)nc1C [compound 65], the “Mean Inhib (%)” value (kinases [1]) was 23.8%, the “Mean Inhib (%)” value (kinases [2]) was 2.0% and the “Mean Inhib (%)” value (kinases [3]; [30]) was 6.9%. For the same compound, the “Mean Inhib (%)” value (kinases [3]; [31]) was 2.6%, the “Mean Inhib (%)” value (kinases [3]; [32]) was 6.2% and the “Mean Inhib (%)” value (kinases [4]) was −3.0%. For the same compound, the “Mean Inhib (%)” value (kinases [5]) was 60.1%, the “Mean Inhib (%)” value (kinases [6]) was 3.8% and the “Mean Inhib (%)” value (kinases [7]) was 6.6%. The “Mean Inhib (%)” value (kinases [8]) was 67.0%, the “Mean Inhib (%)” value (kinases [9]) was 1.0% and the “Mean Inhib (%)” value (kinases [10]) was 12.1%. The “Mean Inhib (%)” value (kinases [11]) was 0.8%, the “Mean Inhib (%)” value (kinases [12]) was −3.3% and the “Mean Inhib (%)” value (kinases [13]) was 3.7%. For the same compound, the “Mean Inhib (%)” value (kinases [14]) was 10.9%, the “Mean Inhib (%)” value (kinases [15]) was 15.7% and the “Mean Inhib (%)” value (kinases [16]) was 3.4%. For the same compound, the “Mean Inhib (%)” value (kinases [17]) was 8.7%, the “Mean Inhib (%)” value (kinases [18]) was 8.9% and the “Mean Inhib (%)” value (kinases [19]; [34]) was −7.8%. For the same compound, the “Mean Inhib (%)” value (kinases [20]) was 8.2%, the “Mean Inhib (%)” value (kinases [21]) was 9.2% and the “Mean Inhib (%)” value (kinases [22]; [34]) was 13.7%. The “Mean Inhib (%)” value (kinases [23]) was 10.2%, the “Mean Inhib (%)” value (kinases [24]) was 7.3% and the “Mean Inhib (%)” value (kinases [25]) was 17.2%. The “Mean Inhib (%)” value (kinases [26]) was −1.4%, the “Mean Inhib (%)” value (kinases [27]) was −9.9% and the “Mean Inhib (%)” value (kinases [28]) was 0.5%. For the same compound, the “Mean Inhib (%)” value (kinases [29]) was 0.3%.
